Measured values published in patent US20230083730A1, “Composition with Anti-Aging Properties and the Selection Method thereof” (Hemix Biotech Limited, priority 2021, published 2023).

Assays:
[1] = system: Caenorhabditis elegans; test: Caenorhabditis elegans lifespan analysis; type: in vivo; conditions: 200 μM spermidine alone, 10 μM resveratrol alone, or both combined; FIG. 1a
Method: According to an embodiment of the present invention, i.e., a method for selecting a composition having anti-aging properties, step 1 of the method is to confirm the life-span enhancing effect of the composition by using Caenorhabditis elegans lifespan analysis. For chemical treatment in Caenorhabditis elegans, four batches of chemical with different ingredients and content were added to the nematode growth medium (NGM) dishes. The NGM with agarose was autoclaved and then cooled down to below 65° C. The NGM was then poured into 60 mm dishes and incubated at room temperature overnight. The solidified NGM dishes were stored at 4° C. Escherichia coli OP50 strain was used as the food source for C. elegans. A single colony of OP50 was incubated in 200 mL of lysogeny broth (LB) medium at 37° C. overnight. The OP50 was then killed by incubation at 65° C. for 30 minutes. The dead OP50 was spread throughout the surface of the NGM dishes. The NGM dishes with dead OP50 were stored at 4° C. for up to 2 weeks. The synchronization of C. elegans was carried out by the bleaching method. 20 L4 larvae were picked to each 60 mm dish with different chemical treatment and cultured at 20° C. They were monitored every day, and the number of living, dead and missing C. elegans were recorded. […]

[2] = system: Caenorhabditis elegans; conditions: prior art literature; cited from earlier work
[3] = system: human bone marrow mesenchymal stem cells (MSCs); test: human bone marrow mesenchymal stem cell viability assay (MTS); type: cell-based; conditions: 2 days treatment; FIG. 4
Method: Firstly, cells were cultured in 96-well plate and CellTiter 96® AQueous One Solution Cell Proliferation Assay (MTS) was used to carry out the cell viability assay. For human mesenchymal stem cells (MSCs), they were seeded and cultured in 96-well plate and treated with control, resveratrol, spermidine or combined treatment for 2 days. Human bone marrow mesenchymal stem cells (MSCs) were treated with four batches of chemical having different ingredients and concentrations of spermidine and resveratrol for two days under identical experimental conditions. The ingredients and concentrations of spermidine and resveratrol of the four different chemicals are: control blank, spermidine alone, resveratrol alone, and a combined use of spermidine and resveratrol.

Compound	life span of Caenorhabditis elegans [1]	effective concentration to extend the lifespan of Caenorhabditis elegans [2] [µM]	cell viability of human bone marrow MSCs [3]
Oc1ccc(C=Cc2cc(O)cc(O)c2)cc1 [resveratrol, 3,5,4′-trihydroxystilbene]	higher than that of the control blank	100	can enhance cell viability
NCCCCNCCCN [spermidine]	higher than that of the control blank	200	can enhance cell viability
